The test concerns CD2F1 mice, L1210 leukemia ip, survival T/C. The test can be described thus: NCI In Vivo Anticancer Drug Screen. Data for tumor model L1210 Leukemia (intraperitoneal) in CD2F1 (CDF1) mice. The conditions noted are these: higher = longer survival. The essentials: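 Antitumor effect is scored in animals hosting a serially transplanted tumor. Values compare compound-dosed animals against vehicle-only controls as a simple quotient.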

The mark [1] stands for this setting: endpoint: mean survival time, dose: 12.5 mg/kg/injection, schedule: Q01DX009 (ip), vehicle: saline with Tween-80.
Setting [2] is: endpoint: mean survival time, dose: 25.0 mg/kg/injection, schedule: Q01DX009 (ip), vehicle: saline with Tween-80.
Where [3] appears, read: endpoint: mean survival time, dose: 50.0 mg/kg/injection, schedule: Q01DX009 (ip), vehicle: saline with Tween-80.
Where [4] appears, read: endpoint: mean survival time, dose: 100.0 mg/kg/injection, schedule: Q04DX003 (ip), vehicle: saline with Tween-80.
The mark [5] stands for this setting: endpoint: mean survival time, dose: 200.0 mg/kg/injection, schedule: Q04DX003 (ip), vehicle: saline with Tween-80.
The mark [6] stands for this setting: endpoint: mean survival time, dose: 400.0 mg/kg/injection, schedule: Q04DX003 (ip), vehicle: saline with Tween-80.
Setting [7] is: endpoint: mean survival time, dose: 75.0 mg/kg/injection, schedule: Q01DX001 (ip), vehicle: saline.
[8] abbreviates: endpoint: mean survival time, dose: 150.0 mg/kg/injection, schedule: Q01DX001 (ip), vehicle: saline.
[9] abbreviates: endpoint: mean survival time, dose: 300.0 mg/kg/injection, schedule: Q01DX001 (ip), vehicle: saline.
[10] abbreviates: endpoint: mean survival time, dose: 100.0 mg/kg/injection, schedule: Q01DX009 (ip), vehicle: saline with Tween-80.
The mark [11] stands for this setting: endpoint: mean survival time, dose: 200.0 mg/kg/injection, schedule: Q01DX009 (ip), vehicle: saline with Tween-80.

The results in this text go back to PubChem BioAssay AID256 (DTP/NCI, 2004).

“And” between values parts separate entries of the source, which are not always exact repeats. Identical values can stand only once. Inconclusive results and toxic doses are left out.

With `COc1ccc2[nH]cc(CCN(C)C)c2c1`, the T/C is, setting by setting: under setting [1], 94 % of control; (endpoint: mean survival time, dose: 12.5 mg/kg/injection, schedule: Q04DX003 (ip), vehicle: saline with Tween-80) 100 % of control; under setting [2], 91 % of control; (endpoint: mean survival time, dose: 25.0 mg/kg/injection, schedule: Q04DX003 (ip), vehicle: saline with Tween-80) 95 % of control; under setting [3], 92 % of control; (endpoint: mean survival time, dose: 50.0 mg/kg/injection, schedule: Q04DX003 (ip), vehicle: saline with Tween-80) 96 % of control.
Take `CS(=O)(=O)c1ncc[nH]1`: the T/C is 100 % of control under setting [4], 109 % of control under setting [5] and 109 % of control under setting [6].
With `CC(O)CN(C)C` (stereo not given), the T/C reads like this: (endpoint: mean survival time, dose: 100.0 mg/kg/injection, schedule: Q01DX001 (ip), vehicle: saline) 98 % of control; (endpoint: mean survival time, dose: 200.0 mg/kg/injection, schedule: Q01DX001 (ip), vehicle: saline) 103 % of control; (endpoint: mean survival time, dose: 400.0 mg/kg/injection, schedule: Q01DX001 (ip), vehicle: saline) 103 % of control.
Consider `CS(=O)(=O)OC[C@@H](O)[C@@H](O)COS(C)(=O)=O`, for which the T/C by setting is: (endpoint: mean survival time, dose: 100.0 mg/kg/injection, schedule: Q04DX003 (ip), vehicle: saline sonified) 94 % of control and 102 % of control; (endpoint: mean survival time, dose: 200.0 mg/kg/injection, schedule: Q04DX003 (ip), vehicle: saline sonified) 100 % of control and 108 % of control; (endpoint: mean survival time, dose: 400.0 mg/kg/injection, schedule: Q04DX003 (ip), vehicle: saline sonified) 97 % of control and 100 % of control.
Consider `O=C(NCCN1CCCCC1)C(O)(C1CCCCC1)C1CCCCC1`, for which the T/C is, setting by setting: under setting [7], 97 % of control; under setting [8], 97 % of control; under setting [9], 97 % of control.
As to `CCCCCCCCCCCCCCCC/C(=C\c1ccc2ccccc2c1)[N+](=O)[O-]`, the T/C reads like this: (endpoint: mean survival time, dose: 75.0 mg/kg/injection, schedule: Q01DX001 (ip), vehicle: other) 106 % of control; (endpoint: mean survival time, dose: 150.0 mg/kg/injection, schedule: Q01DX001 (ip), vehicle: other) 96 % of control; (endpoint: mean survival time, dose: 300.0 mg/kg/injection, schedule: Q01DX001 (ip), vehicle: other) 95 % of control.
With `Cc1ccc(S(=O)(=O)N/N=C/c2ccccc2Cl)cc1`, the T/C reads like this: (endpoint: mean survival time, dose: 12.5 mg/kg/injection, schedule: Q01DX009 (ip), vehicle: Klucel (hydroxypropylcellulose) (HPC)) 93 % of control; (endpoint: mean survival time, dose: 25.0 mg/kg/injection, schedule: Q01DX009 (ip), vehicle: Klucel (hydroxypropylcellulose) (HPC)) 91 % of control; (endpoint: mean survival time, dose: 50.0 mg/kg/injection, schedule: Q01DX009 (ip), vehicle: Klucel (hydroxypropylcellulose) (HPC)) 90 % of control; (endpoint: mean survival time, dose: 100.0 mg/kg/injection, schedule: Q01DX009 (ip), vehicle: Klucel (hydroxypropylcellulose) (HPC)) 98 % of control.
With `O=C(Nc1ccccc1)c1c(O)[nH]c(=O)[nH]c1=O`, the T/C (endpoint: median survival time, dose: 25.0 mg/kg/injection, schedule: Q01DX009 (ip), vehicle: saline with Tween-80) was 112 % of control [middle of 5 runs]; the T/C (endpoint: median survival time, dose: 50.0 mg/kg/injection, schedule: Q01DX009 (ip), vehicle: saline with Tween-80) was 124 % of control and 112 % of control and 108 % of control; the T/C (endpoint: median survival time, dose: 200.0 mg/kg/injection, schedule: Q01DX009 (ip), vehicle: saline with Tween-80) is 166 % of control and 179 % of control and 211 % of control; the T/C (endpoint: median survival time, dose: 400.0 mg/kg/injection, schedule: Q01DX009 (ip), vehicle: saline with Tween-80) was 233 % of control.
`O=C(Nc1ccccc1)c1c(O)[nH]c(=S)[nH]c1=O`: the T/C is 124 % of control (endpoint: median survival time, dose: 6.2 mg/kg/injection, schedule: Q01DX005 (iv), vehicle: other); 124 % of control (endpoint: median survival time, dose: 6.2 mg/kg/injection, schedule: Q01DX005 (iv), vehicle: saline with Tween-80); 116 % of control (endpoint: median survival time, dose: 6.25 mg/kg/injection, schedule: Q01DX009 (ip), vehicle: saline with Tween-80); 124 % of control (endpoint: median survival time, dose: 12.5 mg/kg/injection, schedule: Q01DX005 (iv), vehicle: other); 124 % of control (endpoint: median survival time, dose: 12.5 mg/kg/injection, schedule: Q01DX005 (iv), vehicle: saline with Tween-80); 119 % of control (endpoint: median survival time, dose: 20.0 mg/kg/injection, schedule: Q01DX009 (ip), vehicle: saline with Tween-80). For the same molecule, the T/C was 158 % of control (endpoint: median survival time, dose: 25.0 mg/kg/injection, schedule: Q01DX005 (iv), vehicle: other); 197 % of control (endpoint: median survival time, dose: 25.0 mg/kg/injection, schedule: Q01DX009 (ip), vehicle: other); 124 % of control (endpoint: median survival time, dose: 25.0 mg/kg/injection, schedule: Q01DX009 (ip), vehicle: water); 162 % of control (endpoint: median survival time, dose: 30.0 mg/kg/injection, schedule: Q01DX009 (ip), vehicle: saline with Tween-80); 157 % of control and 168 % of control (endpoint: median survival time, dose: 44.0 mg/kg/injection, schedule: Q01DX009 (ip), vehicle: saline with Tween-80); 114 % of control (endpoint: median survival time, dose: 50.0 mg/kg/injection, schedule: Q01DX009 (ip), vehicle: other). The T/C was 204 % of control (endpoint: median survival time, dose: 50.0 mg/kg/injection, schedule: Q01DX009 (ip), vehicle: water); 182 % of control and 192 % of control (endpoint: median survival time, dose: 67.0 mg/kg/injection, schedule: Q01DX009 (ip), vehicle: saline with Tween-80).
Take `CCCC/C=C/C(=O)OCC`: the T/C is, setting by setting: under setting [3], 91 % of control and 96 % of control; under setting [10], 103 % of control and 101 % of control; under setting [11], 103 % of control and 101 % of control.
With `C#CC(OC(C)=O)C1OC(n2cnc3c(Cl)nc(Cl)nc32)C(OC(C)=O)C1OC(C)=O` (stereo not given), the T/C (endpoint: median survival time, dose: 12.5 mg/kg/injection, schedule: Q01DX005 (ip), vehicle: distilled water + Tween-80) is 109 % of control and 103 % of control; the T/C (endpoint: median survival time, dose: 25.0 mg/kg/injection, schedule: Q01DX005 (ip), vehicle: distilled water + Tween-80) is 107 % of control and 100 % of control; the T/C (endpoint: median survival time, dose: 50.0 mg/kg/injection, schedule: Q01DX005 (ip), vehicle: distilled water + Tween-80) is 103 % of control; the T/C (endpoint: median survival time, dose: 100.0 mg/kg/injection, schedule: Q01DX005 (ip), vehicle: distilled water + Tween-80) was 108 % of control and 111 % of control; the T/C (endpoint: median survival time, dose: 200.0 mg/kg/injection, schedule: Q01DX005 (ip), vehicle: distilled water + Tween-80) is 102 % of control and 111 % of control.
`O=CN(O)CC(=O)O.[Zn]`: the T/C reads like this: (endpoint: mean survival time, dose: 12.5 mg/kg/injection, schedule: Q04DX003 (ip), vehicle: saline) 96 % of control; (endpoint: mean survival time, dose: 25.0 mg/kg/injection, schedule: Q04DX003 (ip), vehicle: saline) 95 % of control.
Regarding `NC(N)=N/N=C\c1ccc2ccccc2c1`, the T/C is 97 % of control (endpoint: mean survival time, dose: 25.0 mg/kg/injection, schedule: Q04DX002 (ip), vehicle: saline with Tween-80) and 101 % of control (endpoint: mean survival time, dose: 50.0 mg/kg/injection, schedule: Q04DX002 (ip), vehicle: saline with Tween-80).
Take `COc1cc(Cl)ccc1NC(=O)Oc1ccc([N+](=O)[O-])cc1`: the T/C is 96 % of control under setting [3], 96 % of control under setting [10] and 100 % of control under setting [11].
Regarding `O=C1N=C(Oc2ccccc2)SC1=O`, the T/C under setting [1] is 95 % of control and 104 % of control; the T/C under setting [2] is 116 % of control and 101 % of control; the T/C under setting [3] was 103 % of control and 106 % of control; the T/C under setting [10] is 97 % of control and 101 % of control; the T/C under setting [11] is 90 % of control.
Turning to `CC(C)NCC(O)COc1ccc(O)c(O)c1` (stereo not given), the T/C runs as follows: (endpoint: median survival time, dose: 12.5 mg/kg/injection, schedule: Q01DX009 (ip), vehicle: saline) 101 % of control; (endpoint: median survival time, dose: 25.0 mg/kg/injection, schedule: Q01DX009 (ip), vehicle: saline) 97 % of control and 101 % of control; (endpoint: median survival time, dose: 50.0 mg/kg/injection, schedule: Q01DX009 (ip), vehicle: saline) 98 % of control and 107 % of control; (endpoint: median survival time, dose: 100.0 mg/kg/injection, schedule: Q01DX009 (ip), vehicle: saline) 107 % of control and 112 % of control; (endpoint: median survival time, dose: 200.0 mg/kg/injection, schedule: Q01DX009 (ip), vehicle: saline) 90 % of control.
In the case of `NC(=S)c1ccc(OCCCc2ccccc2)cc1`, the T/C reads like this: under setting [2], 95 % of control; under setting [3], 95 % of control.
Take `CCC/C=C(\C)C(C#N)CC` (stereo not given): the T/C is, setting by setting: under setting [7], 100 % of control; under setting [8], 97 % of control; under setting [9], 101 % of control.
Consider `Cc1cccc(C)c1NC(=O)c1ccccc1Cl`, for which the T/C was 98 % of control under setting [4], 97 % of control under setting [5] and 89 % of control under setting [6].
For the molecule `COC1C2CCC1N(C)CC2` (stereo not given), the T/C reads like this: (endpoint: mean survival time, dose: 37.5 mg/kg/injection, schedule: Q04DX002 (ip), vehicle: saline with Tween-80) 106 % of control; (endpoint: mean survival time, dose: 75.0 mg/kg/injection, schedule: Q04DX002 (ip), vehicle: saline with Tween-80) 98 % of control; (endpoint: mean survival time, dose: 150.0 mg/kg/injection, schedule: Q04DX002 (ip), vehicle: saline with Tween-80) 117 % of control; (endpoint: mean survival time, dose: 300.0 mg/kg/injection, schedule: Q04DX002 (ip), vehicle: saline with Tween-80) 95 % of control.
